The values below come from US20130209368A1, “NEAR INFRARED FLUORESCENT PARTICLES AND USES THEREOF” (YISSUM RESEARCH DEVELOPMENT COMPANY OF THE HEBREW …, priority 2010, published 2013).

Data set [1] in a line: Absorption of ICG over time at light and at dark. It is filed as physicochemical. On the procedure:
Absorbance spectra of the samples were taken using a Cary 100 Biospectrophotometer, in a 1 cm polystyrene cell, and a scan rate of 600 nm/min.
The red shift is accompanied with quenching of fluorescence, i.e., the larger the red shift the lower the fluorescence intensity. Because the fluorescence intensity of ICG-liposomes was greater than that of unbound ICG molecules (aqueous solution), the quantum yield ratio between the two states in which ICG is present was determined, for a concentration of 1.28×10^−3 mM. As mentioned above, ICG is poorly stable in aqueous solutions due to degradation, and therefore, in order to evaluate the stability of the ICG-adsorbed liposomes, the absorption of this fluorescent probe, when dissolved in an aqueous solution or adsorbed to the liposomes, was measured at light and at dark over time.

Data set [2] concerns Erk phosphorylation, an EGFR downstream signaling molecule, in A431 cells. In words: EGF-FITC bioactivity: Erk phosphorylation by Western blotting. It is filed as cell-based. Conditions: A431 cultures, 10 ng/ml for 10 min. On the procedure:
FIGS. 7A-7D show purification and bioactivity validation of EGF-FITC. Purification of FITC-labeled EGF was performed in two sequential steps of desalting (7A) and ion exchange (7B). A431 cultures were incubated with 10 ng/ml for 10 min with native (EGF) and FITC-labeled EGF (EGF-FITC) or left untreated. The phosphorylation of Erk (p-Erk) was evaluated using Western blotting. Total Erk protein (pan-Erk) was measured for internal control purposes to assure loading of equal protein quantities (7C). A431 cells were incubated for 15 min with 10 ng/ml EGF-FITC in the presence or absence of excess unlabeled EGF (500 ng/ml) or left untreated. […]
Western blotting was performed as described by Lecht et al. (2010). Briefly, total cellular protein was extracted following lysis of the A431 cells and quantified using the Bradford reagent assay (Bio-Rad, Hercules, Calif., USA). For Western blotting, equal quantities of protein (40 μg) were loaded on 10% polyacrylamide gels, separated by SDS-PAGE (100 V for 1.5 hrs), and transferred on ice to nitrocellulose membranes (90 V for 1.5 hrs) (Whatman, Germany). […]
In order to study the binding of cetuximab-labeled ICG-adsorbed liposomes to cell overexpressing EGFR we prepared FITC-labeled EGF (EGF-FITC) to be used as positive control. […] Upon purification of EGF-FITC, the bioactivity of the labeled protein was evaluated. […]
(In general: A western blot detects proteins with antibodies after separation by electrophoresis.)

For data set [3], the system named is A431 cells. Nature of the data set: EGF-FITC labeling of A431 cells by fluorescent microscopy. It is filed as cell-based. As to conditions: 10 ng/ml, 15 min; reduced by excess unlabeled EGF. On the procedure:
FIGS. 7A-7D show purification and bioactivity validation of EGF-FITC. Purification of FITC-labeled EGF was performed in two sequential steps of desalting (7A) and ion exchange (7B). A431 cultures were incubated with 10 ng/ml for 10 min with native (EGF) and FITC-labeled EGF (EGF-FITC) or left untreated. The phosphorylation of Erk (p-Erk) was evaluated using Western blotting. Total Erk protein (pan-Erk) was measured for internal control purposes to assure loading of equal protein quantities (7C). A431 cells were incubated for 15 min with 10 ng/ml EGF-FITC in the presence or absence of excess unlabeled EGF (500 ng/ml) or left untreated. The cultures were visualized using fluorescent microscopy at 40× magnification (7D).
In order to study the binding of cetuximab-labeled ICG-adsorbed liposomes to cell overexpressing EGFR we prepared FITC-labeled EGF (EGF-FITC) to be used as positive control. EGF-FITC was purified from excess FITC and unlabeled FOP via desalting and ion exchange purification steps. Following desalting, the fraction containing EGF and EGF-FITC was collected (FIG. 7A) and further processed to separate labeled from unlabeled EGF. […] Upon purification of EGF-FITC, the bioactivity of the labeled protein was evaluated. […] Following validation of the bioactivity of the labeled protein, EGF-FITC was used in the next experiments as a positive control.

As to `CC1(C)C(/C=C/C=C/C=C/C=C2\N(CCCCS(=O)(=O)[O-])c3ccc4ccccc4c3C2(C)C)=[N+](CCCCS(=O)(=O)[O-])c2ccc3ccccc3c21.[Na+]` [ICG, Indocyanine green], the “ICG absorption over time” value in data set [1] was “decreases over time both in light and in dark”.
In the case of “EGF-FITC: human recombinant EGF covalently labeled with FITC, used as positive control”, in data set [2], the Erk phosphorylation result is “able to induce Erk phosphorylation”. Moreover, the “labeling of A431 cells” value in data set [3] is listed as “highly specific labeling”.
